Reference: article PMC9787790, “Functional Characterization of Novel Bony Fish Lipoxygenase Isoforms and Their Possible Involvement in Inflammation” (International Journal of Molecular Sciences, 2022)

What was measured:
[1] = target: T1, ALOX-isoform of P. nyererei (putative ALOX15 ortholog) (Pundamilia nyererei, UniProt A0A3B4GKQ4); assay: lysate supernatant oxygenation assay, RP-HPLC / NP-HPLC of products; assay type: biochemical; conditions: 100 µM AA; 3 min; products after reduction 12-HETE (major) and 8-HETE
T1 construct: gene alox12; cell lysate supernatant used (activity lost on purification)
T1 sequence (A0A3B4GKQ4 1-670): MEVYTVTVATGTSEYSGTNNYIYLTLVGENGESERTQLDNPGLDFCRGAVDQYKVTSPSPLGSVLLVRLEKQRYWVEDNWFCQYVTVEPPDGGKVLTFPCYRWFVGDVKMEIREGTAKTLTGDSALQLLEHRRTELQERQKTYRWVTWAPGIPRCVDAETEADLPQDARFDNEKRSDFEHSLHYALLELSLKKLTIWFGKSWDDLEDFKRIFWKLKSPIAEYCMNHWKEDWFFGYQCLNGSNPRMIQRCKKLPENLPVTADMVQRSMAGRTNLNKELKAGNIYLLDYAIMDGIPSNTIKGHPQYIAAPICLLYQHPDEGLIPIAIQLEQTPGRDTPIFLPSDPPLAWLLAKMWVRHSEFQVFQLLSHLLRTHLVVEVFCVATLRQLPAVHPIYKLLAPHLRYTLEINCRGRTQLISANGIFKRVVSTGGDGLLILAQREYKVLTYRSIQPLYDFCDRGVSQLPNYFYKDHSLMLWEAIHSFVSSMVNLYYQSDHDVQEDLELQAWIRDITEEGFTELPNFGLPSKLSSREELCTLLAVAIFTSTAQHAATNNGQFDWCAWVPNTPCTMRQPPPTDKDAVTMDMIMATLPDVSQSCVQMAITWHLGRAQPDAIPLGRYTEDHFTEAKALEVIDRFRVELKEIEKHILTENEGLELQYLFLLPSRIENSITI

[2] = target: T2, ALOX-isoform of N. furzeri (putative ALOX15 ortholog) (Nothobranchius furzeri, UniProt A0A1A7ZHE9); assay: as above; assay type: biochemical; conditions: 100 µM AA; 3 min; products after reduction 12-HETE (major) and 8-HETE
T2 construct: gene ALOX12; cell lysate supernatant used (activity lost on purification)
T2 sequence (A0A1A7ZHE9 1-670): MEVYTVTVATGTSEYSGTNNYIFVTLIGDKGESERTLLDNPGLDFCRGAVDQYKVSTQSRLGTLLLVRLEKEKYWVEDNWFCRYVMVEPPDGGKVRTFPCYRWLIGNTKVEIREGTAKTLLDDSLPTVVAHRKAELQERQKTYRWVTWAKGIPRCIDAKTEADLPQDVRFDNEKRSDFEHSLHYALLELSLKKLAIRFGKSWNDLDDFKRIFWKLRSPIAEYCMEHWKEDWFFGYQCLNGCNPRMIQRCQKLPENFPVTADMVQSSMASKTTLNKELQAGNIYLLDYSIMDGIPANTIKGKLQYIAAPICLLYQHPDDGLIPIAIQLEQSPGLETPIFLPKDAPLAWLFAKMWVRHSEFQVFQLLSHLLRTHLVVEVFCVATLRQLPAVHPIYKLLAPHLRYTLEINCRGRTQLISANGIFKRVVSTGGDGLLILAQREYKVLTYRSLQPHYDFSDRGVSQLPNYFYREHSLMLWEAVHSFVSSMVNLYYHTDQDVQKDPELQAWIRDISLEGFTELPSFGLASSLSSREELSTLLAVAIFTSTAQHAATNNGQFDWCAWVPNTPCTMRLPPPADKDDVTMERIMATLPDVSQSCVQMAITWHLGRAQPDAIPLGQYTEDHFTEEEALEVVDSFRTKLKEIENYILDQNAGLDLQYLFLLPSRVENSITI

CCCCC/C=C\C/C=C\C/C=C\C/C=C\CCCC(=O)O [AA, arachidonic acid]
lysate supernatant oxygenation assay, RP-HPLC / NP-HPLC of products [1]: AA is oxygenated by the three bony fish ALOX-isoforms to a mixture of 12-HETE
lysate supernatant oxygenation assay, RP-HPLC / NP-HPLC of products [2]: AA is oxygenated by the three bony fish ALOX-isoforms to a mixture of 12-HETE
